Laboratory results taken from the supplement of paper PMC10307832.

Legend:
Assay in all cases: relative viability (nuclei count vs DMSO), 5 days (fraction); higher = more cells survive
[1] = compound: C1=CC(=CC=C1NC(=S)NNC2=C(C=C(C=C2[N+](=O)[O-])C(F)(F)F)[N+](=O)[O-])F [Kobe2602] + N=C(N)NC(=N)NCCc1ccccc1 [Phenformin] (partner 250 µM)
Procedure, shortened: (§1)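 Nuclei were stained with Hoechst during a one-step fixation (final 0.05% Triton X-100, 1% formaldehyde, 1 ug/ml Hoechst) carried out 5 days after dosing, then counted on 4× images. The cells, lung cancer lines in 1536-well plates, had been dosed by pin tool the day after seeding with one drug alone or a fixed anchor-drug dose plus five library-drug doses (not always all listed) in √10 steps. Relative viability is the nuclei count in treated wells divided by that in vehicle wells, and each value is the median of duplicate plates.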

[2] = compound: C1=CC(=CC=C1NC(=S)NNC2=C(C=C(C=C2[N+](=O)[O-])C(F)(F)F)[N+](=O)[O-])F [Kobe2602] + CC(=O)c1c(C)c2cnc(Nc3ccc(N4CCNCC4)cn3)nc2n(C2CCCC2)c1=O [Palbociclib] (partner 0.5 µM)
Procedure, shortened: as §1

[3] = compound: O[C@@H](COc1cccc2ncccc12)CN1CCN([C@@H]2c3ccccc3[C@@H]3[C@H](c4ccccc42)C3(F)F)CC1 [Zosuquidar] + CC(C)C[C@H](NC(=O)[C@H](Cc1ccccc1)NC(=O)c1cnccn1)B(O)O [Bortezomib] (partner 0.002 µM)
Procedure, shortened: as §1

[4] = compound: COc1cc2nccc(Oc3ccc(NC(=O)C4(C(=O)Nc5ccc(F)cc5)CC4)cc3)c2cc1OC [Cabozantinib] + C[C@@H](Oc1cc(-c2cnn(C3CCNCC3)c2)cnc1N)c1c(Cl)ccc(F)c1Cl [Crizotinib] (partner 1 µM)
Procedure, shortened: as §1

Cell Line | relative viability ([1]; first compound 0.2 µM) | relative viability ([1]; first compound 0.6325 µM) | relative viability ([1]; first compound 6.325 µM) | relative viability ([1]; first compound 20 µM) | relative viability ([2]; first compound 0.2 µM) | relative viability ([2]; first compound 0.6325 µM) | relative viability ([2]; first compound 2 µM) | relative viability ([2]; first compound 6.325 µM) | relative viability ([2]; first compound 20 µM) | relative viability ([3]; first compound 0.01 µM) | relative viability ([3]; first compound 0.03162 µM) | relative viability ([3]; first compound 0.1 µM) | relative viability ([3]; first compound 0.3162 µM) | relative viability ([3]; first compound 1 µM) | relative viability ([4]; first compound 0.02 µM) | relative viability ([4]; first compound 0.06325 µM) | relative viability ([4]; first compound 0.2 µM) | relative viability ([4]; first compound 0.6325 µM) | relative viability ([4]; first compound 2 µM) | relative viability ([1]; first compound 2 µM)
NCI-H2085 | 0.682 | 0.687 | 0.684 | 0.708 | 0.506 | 0.481 | 0.508 | 0.489 | 0.418 | 1.11 | 0.987 | 0.852 | 1.1 | 1.06 | 0.949 | 0.921 | 0.992 | 0.898 | 0.799 | –
LC-2-ad | 0.567 | 0.618 | 0.586 | 0.55 | 0.466 | 0.514 | 0.533 | 0.506 | 0.484 | 1.07 | 0.975 | 0.989 | 1.26 | 0.933 | 0.438 | 0.606 | 0.493 | 0.474 | 0.467 | 0.512
201T | 0.463 | 0.449 | 0.394 | 0.405 | 0.378 | 0.375 | 0.351 | 0.394 | 0.322 | 1.09 | 1.05 | 0.939 | 1.05 | 1.06 | 1.04 | 1.02 | 0.988 | 0.956 | 0.976 | 0.425
NCI-H2023 | 0.419 | 0.442 | 0.352 | 0.244 | 0.33 | 0.41 | 0.405 | 0.32 | 0.255 | 0.93 | 0.939 | 0.878 | 1.4 | 1.06 | 0.746 | 0.755 | 0.714 | 0.601 | 0.724 | 0.432
NCI-H2347 | 0.529 | 0.48 | 0.469 | 0.407 | 0.422 | 0.435 | 0.403 | 0.438 | 0.421 | 1.2 | 0.979 | 1.04 | 1.22 | 0.6 | 0.761 | 0.771 | 0.46 | 0.786 | 0.584 | 0.375
LXF-289 | 0.495 | 0.577 | 0.536 | 0.518 | 0.585 | 0.597 | 0.59 | 0.556 | 0.62 | 0.993 | 1.01 | 1.01 | 0.99 | 0.976 | 0.858 | 0.857 | 0.392 | 0.805 | 0.818 | 0.494
EKVX | 0.27 | 0.237 | 0.233 | 0.248 | 0.456 | 0.386 | 0.375 | 0.408 | 0.379 | 1.05 | 0.975 | 0.839 | 0.984 | 1.02 | 1.25 | 1.07 | 0.856 | 0.907 | 1.03 | 0.22
